Where a name gives a salt, the structure may show the parent alone.

The first assay deals with hypoxia-induced death. Put plainly: Anoxic Nitrogen Test in Rats (survival after 1 min pure N2). The conditions noted are these: Rattus norvegicus, ip, Table 2; 40 mg/kg ip; read-out: Rating (survival). It counts as in vivo, male Sprague-Dawley rats. An excerpt: Most specifically, administration of the compounds of Formula I results in protecting against hypoxia-induced death in an anoxic nitrogen test in rats. This particular test identifies the neuro-protective effects of substances against lethal brain damages produced by a lack of oxygen consumption (anoxia). In this test procedure, control animals exposed for one minute to a pure nitrogen atmosphere will expire because of respiratory failure caused by irreversible damage to the brain respiratory center.
The animals utilized are male Sprague-Dawley rats (200-240 grams) housed four animals per cage in a normal controlled environment with unlimited access to food and water. Usually there are 8 animals per dose, however, 4 animals can be employed to obtain an initial impression of a compound's activity. Animals surviving the anoxic insult are sacrificed via CO2 inhalation following completion of the observation session (2 hr).
[…] The anoxic episode consists of placing up to 4 animals in the sealed test chamber (10" l×10" w×6" h) continuously flushed with pure N2 (4.5 grade) at a flow rate of 3 SCFM for 1 min. Animals are then promptly removed to normal atmosphere and observed for the 2 hour time period. Typically, animals become disoriented within 15 sec which leads into convulsions at 30 to 35 sec after which they remain motionless.
In spite of the fact that after the N2 exposure the heart is still beating, all control animals fail to gasp when removed from the chamber and usually expire within 3 minutes. Drug treated animals, however, still gasp or start gasping after being removed which is a good indication if an animal will survive the N2 exposure (1).
Results are recorded as: [formula] and are statistically evaluated using the Finney Dose Response program for determination of the ED50 and its corresponding 95% confidence limits.
Compounds of the present invention were rated at each dose level tested using the following rating scale:
+=weak activity (up to 25% survival)
++=moderate activity (25-50% survival)
+++=good activity (51-75% survival)
++++=very good activity (76-100%)
In the case of `Fc1cnc(N2CCN(CCCC3OCCO3)CC2)nc1` [Example 11, 1-[3-(1,3-dioxolan-2-yl)propyl]-4-(5-Fluoro-2-pyrimidinyl) piperazine], the responders at 40 mg/kg was under 25%.

For the compound `O=C(NC(CCCN1CCN(c2ncc(F)cn2)CC1)c1ccc(F)cc1)c1ccc(F)cc1` (centres unmarked) [Example 19, 1-[4-(4-Fluorobenzamido)-4-(4-fluorophenyl)butyl]-4-(5-fluoro-2-pyrimidinyl)piperazine], the responders at 40 mg/kg lay in the range of 76 to 100%. On to `O=S(=O)(CCCN1CCN(c2ncc(F)cn2)CC1)c1ccc(F)cc1` [Example 21, 1-[3-(4-Fluorophenylsulfonyl)propyl]-4-(5-fluoro-2-pyrimidinyl)piperazine], for which the responders at 40 mg/kg is under 25%. Still for that read-out and setting: under `O=C(CCCN1CCN(c2ncc(F)cn2)CC1)c1ccc(F)c2ccccc12` [Example 13, 1-(4-Fluoronaphth-1-yl)-4-[4-(5-fluoro-2-pyrimidinyl)-1-piperazinyl]butanon] stands 25 to 50%; under `CC(=O)NC(CCCN1CCN(c2ncc(F)cn2)CC1)c1ccc(F)cc1` (centres unmarked) [Example 18, 1-[4-Acetamido-4-(4-fluorophenyl)butyl]-4-(5-fluoro-2-pyrimidinyl)piperazine monohydrochloride], under 25%; under `O=C(CCCN1CCN(c2ncc(F)cn2)CC1)c1cccs1` [Example 12, 1-(2-Thienyl)-4-[4-(5-fluoro-2-pyrimidinyl)-1-piperazinyl]butanone], under 25%.

Still in this assay, the particulars now being: Rattus norvegicus, ip, Table 2; 80 mg/kg ip; read-out: Rating (survival).
Turning to `OC(CCCN1CCN(c2ncc(F)cn2)CC1)C1CCCCC1` (centres unmarked) [Example 22, 1-Cyclohexyl-4-[4-(5-fluoro-2-pyrimidinyl)-1-piperazinyl]butanol], the responders at 80 mg/kg fell in the range of 51 to 75%. The same measure, in the same setting: under `O=S(=O)(NC(CCCN1CCN(c2ncc(F)cn2)CC1)c1ccc(F)cc1)c1ccc(F)cc1` (centres unmarked) [Example 20, 1-[4-(4-Fluorophenyl)-4-(4-fluorophenylsulfonamido)butyl]-4-(5-fluoro-2-pyrimidinyl)piperazine] stands 76 to 100%. Still for that read-out and setting: under `O=C(CCCN1CCN(c2ncc(F)cn2)CC1)c1ccc(F)c2ccccc12` [Example 13, 1-(4-Fluoronaphth-1-yl)-4-[4-(5-fluoro-2-pyrimidinyl)-1-piperazinyl]butanon] stands 76 to 100%.

Staying with this assay, now noted: Rattus norvegicus, ip, Table 2; 100 mg/kg ip; read-out: Rating (survival).
With `OC(CCCN1CCN(c2ncc(F)cn2)CC1)c1ccc(F)c2ccccc12` (centres unmarked) [Example 23, 1-(4-Fluoronaphth-1-yl)-4-[4-(5-fluoro-2-pyrimidinyl)-1-piperazinyl]butanol], the responders at 100 mg/kg lay in the range of 76 to 100%.

The same assay, now with this note: Rattus norvegicus, ip, Table 3; 40 mg/kg i.p. 60 minutes prior to anoxia testing; read-out: Anti-ischemic Rating.
Turning to `O=S(=O)(NC(CCCN1CCN(c2ncc(F)cn2)CC1)c1ccc(F)c2ccccc12)c1ccc(F)cc1` (centres unmarked) [Example 45], the responders at 40 mg/kg is under 25%. Still for that read-out and setting: under `O=S(=O)(NC(CCCN1CCN(c2ncc(F)cn2)CC1)C1CCCCC1)c1ccc(F)cc1` (centres unmarked) [Example 30] stands 25 to 50%. Same read-out and setting: for `Fc1cnc(N2CCN(CCCCC3CCCCC3)CC2)nc1` [Example 31] the value was 25 to 50%; for `O=C(CCCN1CCN(c2ncc(F)cn2)CC1)C1CCCCC1` [Example 48], 76 to 100%; for `Fc1ccc(CCN2CCN(c3ncc(F)cn3)CC2)cc1` [Example 47], under 25%. Same read-out and setting: under `O=C(NC(CCCN1CCN(c2ncc(F)cn2)CC1)C1CCCCC1)c1ccc(F)cc1` (centres unmarked) [Example 49] stands under 25%. With `O=C(NC(CCCN1CCN(c2ncc(F)cn2)CC1)c1ccc(F)c2ccccc12)c1ccc(F)cc1` (centres unmarked) [Example 26], the responders at 40 mg/kg fell in the range of 25 to 50%.

In the case of `O=C(NC(CCCN1CCN(c2ncc(F)cn2)CC1)c1ccc(F)cc1)c1ccccc1` (centres unmarked) [Example 43], the responders at 40 mg/kg fell in the range of 25 to 50%. On the same count and under the same terms, for `O=C(NC(CCCN1CCN(c2ncc(F)cn2)CC1)c1ccc(F)cc1)c1ccc(F)c2ccccc12` (centres unmarked) [Example 44] the value was 25 to 50%; for `Fc1cnc(N2CCN(CCCCc3ccc(F)c4ccccc34)CC2)nc1` [Example 28], 51 to 75%; for `O=C(OC(CCCN1CCN(c2ncc(F)cn2)CC1)c1ccc(F)cc1)c1ccccc1` (centres unmarked) [Example 46], 25 to 50%.

Staying with this assay, now noted: Rattus norvegicus, ip; 40 mg/kg ip; read-out: Anti-ischemic Rating.
Regarding `COC(CCCN1CCN(c2ncc(F)cn2)CC1)c1ccc(F)cc1` (centres unmarked) [Example 42, 1-[4-(4-Fluorophenyl)-4-methoxybutyl]-4-(5-fluoropyrimidin-2-yl) piperazine hydrochloride], the responders at 40 mg/kg fell in the range of 25 to 50%. Turning to `O=C(OC(CCCN1CCN(c2ncc(F)cn2)CC1)c1ccc(F)cc1)c1ccc(F)cc1` (centres unmarked) [Example 39, 1-(4-Fluorophenyl)-4-(4-(5-fluoro-2-pyrimidinyl)-1-piperazinyl)-1-butyl 4-fluorobenzoate hydrochloride], the responders at 40 mg/kg fell in the range of 51 to 75%. Same read-out and setting: under `[N-]=[N+]=NC(CCCN1CCN(c2ncc(F)cn2)CC1)c1ccc(F)c2ccccc12` (centres unmarked) [Example 40, 1-(4-Azido-4-(4-fluoro-1-naphthyl)-1-butyl)-4-(5-fluoro-2-pyrimidinyl)piperazine monohydrochloride] stands 25 to 50%; under `NC(CCCN1CCN(c2ncc(F)cn2)CC1)c1ccc(F)c2ccccc12` (centres unmarked) [Example 41, 1-(4-Fluoro-1-naphthyl)-4-(4-(5-fluoro-2-pyrimidinyl)-1-piperazinyl) butylamine hydrochloride], 76 to 100%. For `OC(CCCN1CCN(c2ncc(F)cn2)CC1)(c1ccc(F)cc1)C1CCCCC1` (centres unmarked) [Example 37, 1-Cyclohexyl-1-(4-fluorophenyl)-4-(4-(5-fluoro-2-pyrimidinyl)-1-piperazinyl)-1-butanol], the responders at 40 mg/kg lay in the range of 51 to 75%.

Still in this assay, the particulars now being: Rattus norvegicus; Table 2; "^ 40^a" mg/kg ip, given 60 minutes prior to anoxia testing; read-out: Rating (survival).
For the compound `Fc1ccc(SCCCN2CCN(c3ncc(F)cn3)CC2)cc1` [Example 10, 1-[3-(4-Fluorophenylthio)propyl]-4-(5-fluoro-2-pyrimidinyl) piperazine], the responders at 40 mg/kg was under 25%.

Staying with this assay, now noted: Rattus norvegicus; ip; anoxic nitrogen test, 2 hr observation; 95% confidence limits in brackets; read-out: ED50 (19/20 C.L).
Turning to `C[C@]12N[C@H](Cc3ccccc31)c1ccccc12` [(+)MK-801, reference compound], the ED50 was determined as 3.1 mg/kg.

In the case of `CN(c1nc2ccccc2s1)C1CCN(CC(O)COc2ccc(F)cc2)CC1` (centres unmarked) [Sabeluzole], the ED50 was found to be 4.7 mg/kg.

The next assay concerns animal models of stroke and brain infarction.
Experiment: not given
As to conditions: Gotti et al., JPET 247/3, 1211-1221 (1988); cited from earlier work.
For `CC(C(O)c1ccc(O)cc1)N1CCC(Cc2ccccc2)CC1` (centres unmarked) [ifenprodil], the tissue sparing result is “effective in tissue sparing”.

System in a further assay: not given
Experiment: not given
The conditions noted are these: Wauquier et al., Drug Development Research 8/373-380 (1986); cited from earlier work.
Take `CN(c1nc2ccccc2s1)C1CCN(CC(O)COc2ccc(F)cc2)CC1` (centres unmarked) [Sabeluzole]: the anticonvulsant properties entry is recorded as “anticonvulsant properties” and the antihypoxic activity entry was “potent antihypoxic agent”.

The values above are taken from patent US4994460A, “Agents for treatment of brain ischemia” (Bristol-Myers Squibb Co., priority 1990, dated 1991).
